Reference: patent US9828366B2, “Bicyclic derivatives and pharmaceutical composition including the same” (HANMI PHARM. CO., LTD., priority 2014, dated 2017)

Assays:
hSGLT2 = biological target: T1, hSGLT2 (Homo sapiens, UniProt P31639); assay: [14C]-AMG uptake assay in HEK293-hSGLT2 cells; type: cell-based; details: HEK293-hSGLT2 stable cell line
T1 construct: FLAG; expressed in transfected cells
T1 sequence (P31639 1-672): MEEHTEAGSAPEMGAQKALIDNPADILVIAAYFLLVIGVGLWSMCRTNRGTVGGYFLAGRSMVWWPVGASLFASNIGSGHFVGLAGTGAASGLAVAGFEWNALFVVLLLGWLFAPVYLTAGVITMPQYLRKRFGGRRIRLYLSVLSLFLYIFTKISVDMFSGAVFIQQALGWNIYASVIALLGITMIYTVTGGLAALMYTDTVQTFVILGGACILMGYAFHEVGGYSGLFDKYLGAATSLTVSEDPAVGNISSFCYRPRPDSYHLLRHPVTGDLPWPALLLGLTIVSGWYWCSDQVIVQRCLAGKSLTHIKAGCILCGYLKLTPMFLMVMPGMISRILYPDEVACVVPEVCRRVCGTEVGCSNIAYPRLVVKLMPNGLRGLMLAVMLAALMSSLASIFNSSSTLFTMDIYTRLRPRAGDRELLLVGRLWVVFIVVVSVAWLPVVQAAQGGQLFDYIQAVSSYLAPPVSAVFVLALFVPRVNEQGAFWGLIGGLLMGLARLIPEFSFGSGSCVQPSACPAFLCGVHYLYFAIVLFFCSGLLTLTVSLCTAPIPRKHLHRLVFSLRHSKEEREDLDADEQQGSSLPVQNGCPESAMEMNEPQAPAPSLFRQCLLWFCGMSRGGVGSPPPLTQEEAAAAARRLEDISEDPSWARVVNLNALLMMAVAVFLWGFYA
Protocol: (§1) For the evaluation of the pharmaceutical efficacies of the compounds as a SGLT inhibitor, a glucose uptake assay was conducted by using stable cell lines, i.e., HEK293-hSGLT1 and HEK293-hSGLT2. The stable cell lines were prepared by transfection of human embryonic kidney 293 (HEK293) cell line with pcDNA3.1(+)-FLAG-hSGLT1 and pcDNA3.1(+)-FLAG-hSGLT2 vectors.
(§2) The cells were seeded in a 96-well poly-D-lysine (PDL) coated plate at a density of 2.5×10^4 cells/well and cultured in a cell culture incubator for one day at 37° C., 5% CO2. Then, the cells were washed once with 1× assay buffer (140 mM NaCl, 5 mM KCl, 2.5 mM CaCl2, 1 mM MgSO4.7H2O, 1 mM KH2PO4, 10 mM HEPES) and pre-incubated in a cell culture incubator for 30 minutes with 1× assay buffer at 37° C., 5% CO2. Each compound obtained in the Examples was 10-fold diluted with 1× assay buffer. The diluted compounds were added to the plate at various concentrations and then cultured in a cell culture incubator for 1 hour at 37° C., 5% CO2.
(§3) Radioactive [^14C]-alpha-methyl-D-glucopyranoside (Cat# NEC659250UC, Perkin Elmer) was diluted with 1× assay buffer at a concentration of 0.2 μCi. The diluted [^14C]-AMG was added to all the wells in plate in the same amount, and the cells were cultured in a cell culture incubator for 2 hours at 37° C., 5% CO2. The cells were washed three times with cold Dulbecco's Phosphate buffer saline (DPBS) and then lysed with 0.2 N NaOH for 10 minutes at room temperature with shaking. After addition of MicroScint 20 fluid, the cells were allowed to shake for 15 minutes at room temperature, and then the activity of [^14C]AMG was quantified on a β-scintillation counter. IC50 of each of the compounds was determined by GraphPad Prism 4.0 software.

hSGLT1 = biological target: T2, hSGLT1 (Homo sapiens, UniProt P13866); assay: [14C]-AMG uptake assay in HEK293-hSGLT1 cells; type: cell-based; details: HEK293-hSGLT1 stable cell line
T2 construct: FLAG; expressed in transfected cells
T2 sequence (P13866 1-664): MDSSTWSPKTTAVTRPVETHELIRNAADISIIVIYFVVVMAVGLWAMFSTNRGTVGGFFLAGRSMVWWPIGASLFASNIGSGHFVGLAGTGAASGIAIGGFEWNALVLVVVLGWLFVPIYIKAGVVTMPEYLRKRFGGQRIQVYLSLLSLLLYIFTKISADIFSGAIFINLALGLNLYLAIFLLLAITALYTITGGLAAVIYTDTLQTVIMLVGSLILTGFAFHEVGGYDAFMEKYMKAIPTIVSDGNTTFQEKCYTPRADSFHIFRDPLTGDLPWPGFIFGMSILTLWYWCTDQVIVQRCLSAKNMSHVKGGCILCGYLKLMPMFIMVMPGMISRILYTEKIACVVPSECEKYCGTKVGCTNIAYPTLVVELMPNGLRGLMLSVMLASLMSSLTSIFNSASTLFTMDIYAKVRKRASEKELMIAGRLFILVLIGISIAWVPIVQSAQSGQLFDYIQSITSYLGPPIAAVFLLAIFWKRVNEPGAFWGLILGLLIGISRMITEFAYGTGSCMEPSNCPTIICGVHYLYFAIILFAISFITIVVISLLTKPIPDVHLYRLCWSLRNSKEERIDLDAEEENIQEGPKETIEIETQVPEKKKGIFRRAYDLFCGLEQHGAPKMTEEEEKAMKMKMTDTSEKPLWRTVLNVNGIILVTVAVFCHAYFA
Protocol: as §1, §2, §3

C57BL/6 male mice = assay: Urinary glucose excretion test (UGE test); type: in vivo; details: 3 mg/kg oral (Examples 13 to 38), 2 g/kg glucose after 30 minutes, urine collected for 24 hours
Protocol: The pharmaceutical efficacies of the compounds prepared in the Examples were investigated by a urinary glucose excretion test using C57BL/6 male mice (8-week-old, prepared and supplied from Orient Chemical Co. Ltd.).
Two mice were used in each group. The mice were fasted for 16 hours, and the compound of each of the Examples [10 mg/kg of the compound of Examples 1 to 12; and 3 mg/kg of the compound of Examples 13 to 38] was dissolved in a vehicle [a mixed solution of 5% 1-methyl-2-pyrrolidinone, 20% PEG, and 75% 20 mM sodium diphosphate], and orally administered to the mice. After 30 minutes, 2 g/kg of glucose was orally administered to the mice in all the groups. Thereafter, the mice were immediately put into a metabolic cage, and urine was collected for 24 hours. The mice were freely fed an hour after the administration of glucose.
The results obtained from the test, that is, the results obtained by measuring urinary glucose excretion in the C57BL/6 male mice according to the compounds of the Examples, are listed in Table 5.

COc1ccc(Cc2cc([C@@H]3O[C@H](CO)[C@@H](O)[C@H](O)[C@H]3O)cc3c2CCC3)cc1 [Example 14, (2R,3S,4R,5R,6S)-2-(hydroxymethyl)-6-(7-(4-methoxybenzyl)-2,3-dihydro-1H-inden-5-yl)tetrahydro-2H-pyran-3,4,5-triol]
IC50 (hSGLT2): 4 nM
IC50 (hSGLT1): 31.9 nM

Cc1ccc(Cc2cc([C@@H]3O[C@H](CO)[C@@H](O)[C@H](O)[C@H]3O)cc3c2CCC3)cc1 [Example 15, (2R,3S,4R,5R,6S)-2-(hydroxymethyl)-6-(7-(4-methylbenzyl)-2,3-dihydro-1H-inden-5-yl)tetrahydro-2H-pyran-3,4,5-triol]
IC50 (hSGLT2): 9.6 nM
UGE (C57BL/6 male mice): 8.1 mg/20 g/24 hr
IC50 (hSGLT1): 7.7 nM

CCc1ccc(Cc2cc([C@@H]3O[C@H](CO)[C@@H](O)[C@H](O)[C@H]3O)cc3c2CCC3)cc1 [Example 16, (2S,3R,4R,5S,6R)-2-(7-(4-ethylbenzyl)-2,3-dihydro-1H-inden-5-yl)-6-(hydroxymethyl)tetrahydro-2H-pyran-3,4,5-triol]
IC50 (hSGLT2): 5.6 nM
UGE (C57BL/6 male mice): 16.4 mg/20 g/24 hr
IC50 (hSGLT1): 54.6 nM

OC[C@H]1O[C@@H](c2cc3c(c(Cc4ccc(OC(F)(F)F)cc4)c2)CCC3)[C@H](O)[C@@H](O)[C@@H]1O [Example 22, (2R,3S,4R,5R,6S)-2-(hydroxymethyl)-6-(7-(4-(trifluoromethoxy)benzyl)-2,3-dihydro-1H-inden-5-yl)tetrahydro-2H-pyran-3,4,5-triol]
IC50 (hSGLT2): 9.2 nM
UGE (C57BL/6 male mice): 9.6 mg/20 g/24 hr
IC50 (hSGLT1): 511 nM

OC[C@H]1O[C@@H](c2cc3c(c(Cc4ccc(C(F)(F)F)cc4)c2)CCC3)[C@H](O)[C@@H](O)[C@@H]1O [Example 24, (2R,3S,4R,5R,6S)-2-(hydroxymethyl)-6-(7-(4-(trifluoromethyl)benzyl)-2,3-dihydro-1H-inden-5-yl)tetrahydro-2H-pyran-3,4,5-triol]
IC50 (hSGLT2): 6.8 nM
IC50 (hSGLT1): 267 nM

OC[C@H]1O[C@@H](c2cc3c(c(Cc4ccc5c(c4)OCO5)c2)CCC3)[C@H](O)[C@@H](O)[C@@H]1O [Example 29, (2S,3R,4R,5S,6R)-2-(7-(benzo[d][1,3]dioxol-5-ylmethyl)-2,3-dihydro-1H-inden-5-yl)-6-(hydroxymethyl)tetrahydro-2H-pyran-3,4,5-triol]
IC50 (hSGLT2): 3.5 nM
IC50 (hSGLT1): 35.2 nM

OC[C@H]1O[C@@H](c2cc3c(c(Cc4ccc5c(c4)OCCO5)c2)CCC3)[C@H](O)[C@@H](O)[C@@H]1O [Example 30, (2S,3R,4R,5S,6R)-2-(7-((2,3-dihydrobenzo[1,4]dioxin-6-yl)methyl)-2,3-dihydro-1H-inden-5-yl)-6-(hydroxymethyl)tetrahydro-2H-pyran-3,4,5-triol]
IC50 (hSGLT2): 3.5 nM
UGE (C57BL/6 male mice): 7.2 mg/20 g/24 hr
IC50 (hSGLT1): 55.2 nM

CC(C)(C)c1ccc(Cc2cc([C@@H]3O[C@H](CO)[C@@H](O)[C@H](O)[C@H]3O)cc3c2CCC3)cc1 [Example 31, (2S,3R,4R,5S,6R)-2-(7-(4-(tert-butyl)benzyl)-2,3-dihydro-1H-inden-5-yl)-6-(hydroxymethyl)tetrahydro-2H-pyran-3,4,5-triol]
IC50 (hSGLT2): 5.8 nM
IC50 (hSGLT1): 178 nM

Cc1ccc(Cc2cc([C@@H]3O[C@H](CO)[C@@H](O)[C@H](O)[C@H]3O)cc3c2CCC3)cc1C [Example 32, (2S,3R,4R,5S,6R)-2-(7-(3,4-dimethylbenzyl)-2,3-dihydro-1H-inden-5-yl)-6-(hydroxymethyl)tetrahydro-2H-pyran-3,4,5-triol]
IC50 (hSGLT2): 4.5 nM
IC50 (hSGLT1): 63.2 nM

OC[C@H]1O[C@@H](c2cc3c(c(Cc4ccc(OCC(F)(F)F)cc4)c2)CCC3)[C@H](O)[C@@H](O)[C@@H]1O [Example 34, (2R,3S,4R,5R,6S)-2-(hydroxymethyl)-6-(7-(4-(2,2,2-trifluoroethoxy)benzyl)-2,3-dihydro-1H-inden-5-yl)tetrahydro-2H-pyran-3,4,5-triol]
IC50 (hSGLT2): 13.5 nM
IC50 (hSGLT1): 553 nM

OC[C@H]1O[C@@H](c2cc3c(c(Cc4ccc(-c5ccc(F)cc5)s4)c2)CCC3)[C@H](O)[C@@H](O)[C@@H]1O [Example 36, (2S,3R,4R,5S,6R)-2-(7-((5-(4-fluorophenyl)thiophen-2-yl)methyl)-2,3-dihydro-1H-inden-5-yl)-6-(hydroxymethyl)tetrahydro-2H-pyran-3,4,5-triol]
IC50 (hSGLT2): 9 nM
IC50 (hSGLT1): 84.9 nM

OC[C@H]1O[C@@H](c2cc3c(c(Cc4cc5ccccc5s4)c2)CCC3)[C@H](O)[C@@H](O)[C@@H]1O [Example 37, (2S,3R,4R,5S,6R)-2-(7-(benzo[b]thiophen-2-ylmethyl)-2,3-dihydro-1H-inden-5-yl)-6-(hydroxymethyl)tetrahydro-2H-pyran-3,4,5-triol]
IC50 (hSGLT2): 9 nM
UGE (C57BL/6 male mice): 14.5 mg/20 g/24 hr
IC50 (hSGLT1): 19.8 nM

OC[C@H]1O[C@@H](c2cc3c(c(Cc4ccc(C5CC5)cc4)c2)CCC3)[C@H](O)[C@@H](O)[C@@H]1O [Example 38, (2S,3R,4R,5S,6R)-2-(7-(4-cyclopropylbenzyl)-2,3-dihydro-1H-inden-5-yl)-6-(hydroxymethyl)tetrahydro-2H-pyran-3,4,5-triol]
IC50 (hSGLT2): 5.8 nM
UGE (C57BL/6 male mice): 14.8 mg/20 g/24 hr
IC50 (hSGLT1): 24.9 nM

OC[C@H]1O[C@@H](c2cc3c(c(Cc4ccc(Cl)cc4)c2)CCC3)[C@H](O)[C@@H](O)[C@@H]1O [Example 40, (2S,3R,4R,5S,6R)-2-(7-(4-chlorobenzyl)-2,3-dihydro-1H-inden-5-yl)-6-(hydroxymethyl)tetrahydro-2H-pyran-3,4,5-triol]
IC50 (hSGLT2): 28.8 nM
IC50 (hSGLT1): 210 nM
